Data taken from ChEMBL document CHEMBL6109089, “Design, synthesis and optimization of Apcin analogues as Cdc20 inhibitors for triple-negative breast cancer therapy” (Eur J Med Chem, 2025).
Calls of active or inactive are those of the source. The calls are words filed in the database; no cut-off is given here.

What was measured:
MDA-MB-435 = assay: Antiproliferative activity against human MDA-MB-435 cells measured after 3 days by CCK-8 method; settings: MDA-MB-435, 72 h
MDA-MB-231 [1] = assay: Antiproliferative activity against human MDA-MB-231 cells measured after 3 days by CCK-8 method; settings: MDA-MB-231, 72 h
HeLa = assay: Antiproliferative activity against human HeLa cells measured after 48 hrs by CCK-8 method
MDA-MB-231 [2] = assay: Antitumor activity against human MDA-MB-231 cells xenografted in BALB/c nude mouse model assessed as reduction in tumor growth at 15 mg/kg, ip administered daily for 18 days by vernier caliper method relative to control; type: functional; design: scale not given: the % may be the effect or the level left; settings: time 18 day
MDA-MB-231 [3] = assay: Induction of apoptosis in human MDA-MB-231 cells assessed as early apoptotic cells at 8 uM incubated for 24 hrs by Annexin V-FITC/PI staining based flow cytometry analysis (reference value: 5.40%); type: functional
MDA-MB-231 [4] = assay: Antiproliferative activity against human MDA-MB-231 cells assessed as reduction in number of cells in S phase at 1 to 4 uM measured after 48 hrs by EdU incorporation assay; type: functional, cell-based; settings: dose 1-4 µM
[5] = Toxicity in BALB/c nude mouse assessed as change in AST level in liver serum at 15 to 30 mg/kg, ip administered daily for 18 days; type: organism-based; settings: in vivo, 432 h, dose 15-30 mg/kg, time 18 day
[6] = Toxicity in BALB/c nude mouse assessed as effect on kidney at 15 to 30 mg/kg, ip measured after 18 days; type: organism-based; settings: in vivo, 432 h, dose 15-30 mg/kg, time 18 day
MDA-MB-231 [7] = assay: Induction of apoptosis in human MDA-MB-231 cells assessed as increase in cleaved PARP expression at 2 to 4 uM measured after 12 hrs by Western blot analysis; type: functional, cell-based; settings: dose 2-4 µM
MDA-MB-231 [8] = assay: Induction of apoptosis in human MDA-MB-231 cells assessed as necrotic cells at 4 uM incubated for 24 hrs by Annexin V-FITC/PI staining based flow cytometry analysis (reference value: 0.033%); type: functional
[9] = Toxicity in BALB/c nude mouse assessed as change in CK level in heart serum at 15 to 30 mg/kg, ip administered daily for 18 days; type: organism-based; settings: in vivo, 432 h, dose 15-30 mg/kg, time 18 day
MDA-MB-231 [10] = assay: Induction of apoptosis in human MDA-MB-231 cells assessed as viable cells at 8 uM incubated for 24 hrs by Annexin V-FITC/PI staining based flow cytometry analysis (reference value: 94.1%); type: functional; settings: read-out: Activity
MCF7 = assay: cells; settings: Homo sapiens, MCF7, 48 h
Description: Antiproliferative activity against human MCF7 cells assessed as inhibition of cell growth measured after 48 hrs by CCK-8 method

MDA-MB-231 [11] = assay: Induction of apoptosis in human MDA-MB-231 cells assessed as early apoptotic cells at 2 uM incubated for 24 hrs by Annexin V-FITC/PI staining based flow cytometry analysis (reference value: 5.40%); type: functional
MDA-MB-436 = assay: cells; settings: Homo sapiens, MDA-MB-436, 48 h
Description: Antiproliferative activity against human MDA-MB-436 cells assessed as inhibition of cell growth measured after 48 hrs by CCK-8 method

MDA-MB-231 [12] = assay: Induction of apoptosis in human MDA-MB-231 cells assessed as viable cells at 2 uM incubated for 24 hrs by Annexin V-FITC/PI staining based flow cytometry analysis (reference value: 94.1%); type: functional; settings: read-out: Activity
MDA-MB-231 [13] = assay: Induction of apoptosis in human MDA-MB-231 cells assessed as viable cells at 4 uM incubated for 24 hrs by Annexin V-FITC/PI staining based flow cytometry analysis (reference value: 94.1%); type: functional; settings: read-out: Activity
MDA-MB-231 [14] = assay: Induction of cell cycle arrest in human MDA-MB-231 cells assessed as upregulation of phosphorylated histone H3 level at 2 to 4 uM measured after 12 hrs by Western blot analysis; type: functional, cell-based; settings: dose 2-4 µM
MDA-MB-231 [15] = assay: Induction of cell cycle arrest in human MDA-MB-231 cells assessed as increase in accumulation of cells at G2/M phase at 4 uM measured after 24 hrs by PI staining based flow cytometry analysis (reference value: 26.38%); type: functional
[16] = Toxicity in BALB/c nude mouse assessed as change in BUN level in kidney serum at 15 to 30 mg/kg, ip administered daily for 18 days; type: organism-based; settings: in vivo, 432 h, dose 15-30 mg/kg, time 18 day
MDA-MB-231 [17] = assay: Induction of apoptosis in human MDA-MB-231 cells assessed as late apoptotic cells at 2 uM incubated for 24 hrs by Annexin V-FITC/PI staining based flow cytometry analysis (reference value: 0.46%); type: functional
MDA-MB-231 [18] = assay: Antitumor activity against human MDA-MB-231 cells xenografted in BALB/c nude mouse model assessed as reduction in tumor weight at 15 to 30 mg/kg, ip administered daily for 18 days by vernier caliper method; type: functional, organism-based; settings: dose 15-30 mg/kg, time 18.0 day
MDA-MB-231 [19] = assay: Induction of cell cycle arrest in human MDA-MB-231 cells assessed as increase in accumulation of cells at G2/M phase at 8 uM measured after 24 hrs by PI staining based flow cytometry analysis (reference value: 26.38%); type: functional
[20] = Antiproliferative activity against human HK-2 cells assessed as inhibition of cell growth measured after 48 hrs by CCK-8 method; type: toxicity, cell-based
[21] = Antiproliferative activity against human MCF-10A cells assessed as inhibition of cell growth measured after 48 hrs by CCK-8 method; type: toxicity, cell-based
[22] = Toxicity in BALB/c nude mouse assessed as change in ALT level in liver serum at 15 to 30 mg/kg, ip administered daily for 18 days; type: organism-based; settings: in vivo, 432 h, dose 15-30 mg/kg, time 18 day
MDA-MB-231 [23] = assay: Induction of apoptosis in human MDA-MB-231 cells assessed as necrotic cells at 2 uM incubated for 24 hrs by Annexin V-FITC/PI staining based flow cytometry analysis (reference value: 0.033%); type: functional
MDA-MB-231 [24] = assay: Induction of apoptosis in human MDA-MB-231 cells assessed as late apoptotic cells at 4 uM incubated for 24 hrs by Annexin V-FITC/PI staining based flow cytometry analysis (reference value: 0.46%); type: functional
MDA-MB-231 [25] = assay: Induction of apoptosis in human MDA-MB-231 cells assessed as early apoptotic cells at 4 uM incubated for 24 hrs by Annexin V-FITC/PI staining based flow cytometry analysis (reference value: 5.40%); type: functional
[26] = Toxicity in BALB/c nude mouse assessed as effect on heart at 15 to 30 mg/kg, ip measured after 18 days; type: organism-based; settings: in vivo, 432 h, dose 15-30 mg/kg, time 18 day
MDA-MB-231 [27] = assay: Induction of apoptosis in human MDA-MB-231 cells assessed as late apoptotic cells at 8 uM incubated for 24 hrs by Annexin V-FITC/PI staining based flow cytometry analysis (reference value: 0.46%); type: functional
MDA-MB-231 [28] = assay: Antitumor activity against human MDA-MB-231 cells xenografted in BALB/c nude mouse model assessed as reduction in tumor volume at 15 to 30 mg/kg, ip administered daily for 18 days by vernier caliper method; type: functional, organism-based; settings: dose 15-30 mg/kg, time 18.0 day
[29] = Antiproliferative activity against rat H9c2 cells assessed as inhibition of cell growth measured after 48 hrs by CCK-8 method; type: toxicity, cell-based
MDA-MB-231 [30] = assay: Antitumor activity against human MDA-MB-231 cells xenografted in BALB/c nude mouse model assessed as reduction in tumor growth at 30 mg/kg, ip administered daily for 18 days by vernier caliper method relative to control; type: functional; design: scale not given: the % may be the effect or the level left; settings: time 18 day
MDA-MB-231 [31] = assay: Induction of DNA damage in human MDA-MB-231 cells assessed as increase in gamma-H2AX expression at 1 to 4 uM incubated for 24 hrs by Western blot analysis; type: functional, cell-based; settings: dose 1-4 µM
MDA-MB-231 [32] = assay: Induction of apoptosis in human MDA-MB-231 cells assessed as necrotic cells at 8 uM incubated for 24 hrs by Annexin V-FITC/PI staining based flow cytometry analysis (reference value: 0.033%); type: functional
[33] = Toxicity in BALB/c nude mouse assessed as change in LDH level in heart serum at 15 to 30 mg/kg, ip administered daily for 18 days; type: organism-based; settings: in vivo, 432 h, dose 15-30 mg/kg, time 18 day
MDA-MB-231 [34] = assay: Induction of DNA damage in human MDA-MB-231 cells assessed as increase in gamma-H2AX fluorescence intensity at 1 to 4 uM incubated for 48 hrs by immunofluorescence staining based analysis; type: functional, cell-based; settings: dose 1-4 µM
[35] = Toxicity in BALB/c nude mouse assessed as effect on body weight at 15 to 30 mg/kg, ip administered daily for 18 days; type: organism-based; settings: in vivo, 432 h, dose 15-30 mg/kg, time 18 day
[36] = Toxicity in BALB/c nude mouse assessed as change in CREA level in kidney serum at 15 to 30 mg/kg, ip administered daily for 18 days; type: organism-based; settings: in vivo, 432 h, dose 15-30 mg/kg, time 18 day
MDA-MB-231 [37] = assay: cells; settings: Homo sapiens, MDA-MB-231, 48 h
Description: Antiproliferative activity against human MDA-MB-231 cells assessed as inhibition of cell growth measured after 48 hrs by CCK-8 method

[38] = Toxicity in BALB/c nude mouse assessed as effect on liver at 15 to 30 mg/kg, ip measured after 18 days; type: organism-based; settings: in vivo, 432 h, dose 15-30 mg/kg, time 18 day
MDA-MB-231 [39] = assay: Induction of cell cycle arrest in human MDA-MB-231 cells assessed as increase in accumulation of cells at G2/M phase at 2 uM measured after 24 hrs by PI staining based flow cytometry analysis (reference value: 26.38%); type: functional

Cc1ncsc1-c1ccc(CNC(=O)[C@@H]2C[C@@H](O)CN2C(=O)[C@@H](NC(=O)CCOCCOCCOCCOCCOCCC(=O)NCCCOC(=O)NC(Nc2ncccn2)C(Cl)(Cl)Cl)C(C)(C)C)cc1 (stereo partly drawn)
IC50 (MDA-MB-435): 2 µM
IC50 (MDA-MB-231 [1]): 2.6 µM

Nc1nc(F)nc2c1ncn2C(NC(=O)NCCN1CCOCC1)C(Cl)(Cl)Cl (stereo not drawn)
IC50 (HeLa): 0.06 µM

O=C(NC(Nc1nc(Cl)cc(Nc2ccc(C(F)(F)F)cc2)n1)C(Cl)(Cl)Cl)OCCNC(=O)c1cnc(C(F)(F)F)s1 (stereo not drawn)
Activity (MDA-MB-231 [2]): 86%
Activity (MDA-MB-231 [3]): 38.8%
Activity (MDA-MB-231 [4]): Active
Activity [5]: Non-toxic
Activity [6]: Non-toxic
Activity (MDA-MB-231 [7]): Active
Activity (MDA-MB-231 [8]): 0.62%
Activity [9]: Non-toxic
viability at 8 µM (MDA-MB-231 [10]): 52.4%
IC50 (MCF7): 13.8 µM
Activity (MDA-MB-231 [11]): 7.46%
IC50 (MDA-MB-436): 3.86 µM
viability at 2 µM (MDA-MB-231 [12]): 91.7%
viability at 4 µM (MDA-MB-231 [13]): 85.4%
Activity (MDA-MB-231 [14]): Active
Activity (MDA-MB-231 [15]): 34.91%
Activity [16]: Non-toxic
Activity (MDA-MB-231 [17]): 0.26%
Activity (MDA-MB-231 [18]): Active
Activity (MDA-MB-231 [19]): 54.71%
IC50 at 48 h [20]: 23.4 µM
IC50 at 48 h [21]: 23.9 µM
Activity [22]: Non-toxic
Activity (MDA-MB-231 [23]): 0.01%
Activity (MDA-MB-231 [24]): 0.62%
Activity (MDA-MB-231 [25]): 13.4%
Activity [26]: Non-toxic
Activity (MDA-MB-231 [27]): 7.61%
Activity (MDA-MB-231 [28]): Active
IC50 at 48 h [29]: 19.4 µM
Activity (MDA-MB-231 [30]): 90%
Activity (MDA-MB-231 [31]): Active
Activity (MDA-MB-231 [32]): 1.1%
Activity [33]: Non-toxic
Activity (MDA-MB-231 [34]): Active
Activity [35]: Non-toxic
Activity [36]: Non-toxic
IC50 (MDA-MB-231 [37]): 3.28 µM
Activity [38]: Non-toxic
Activity (MDA-MB-231 [39]): 26.89%
